Source: ChEMBL document CHEMBL4813936, “Cyclopeptides from the Mushroom Pathogen Fungus Cladobotryum varium” (J Nat Prod, 2021)
Calls of active or inactive are those of the source. The rule behind the calls is not given here. Where a SMILES comes first, the peptide text is derived from it. [ ]: non-standard residue; d: D form. NMeF = CN[C@@H](Cc1ccccc1)C(=O)O; Hica(2S) = CC(C)C[C@H](O)C(=O)O; βAla = NCCC(=O)O

Experiments:
[1] = system: Ralstonia solanacearum; assay: Antibacterial activity against Ralstonia solanacearum assessed as reduction in microbial growth after 20 hrs by liquid microculture method; type: functional, organism-based
[2] = system: HeLa; assay: Induction of autophagy in human HeLa cells expressing GFP-LC3 assessed as increase in punctate structures at 10 nM measured after 24 hrs by fluorescence microscopic analysis; type: functional, cell-based
[3] = system: Kocuria rhizophila; assay: Antibacterial activity against Kocuria rhizophila ATCC9341 assessed as reduction in microbial growth after 20 hrs by liquid microculture method; type: functional, organism-based
[4] = system: Agrobacterium tumefaciens; assay: Antibacterial activity against Rhizobium radiobacter NBRC14554 assessed as reduction in microbial growth after 20 hrs by liquid microculture method; type: functional, organism-based
[5] = system: P388; assay: Cytotoxicity against mouse P388 cells measure after 72 hrs by XTT assay; type: functional, cell-based
[6] = system: Staphylococcus aureus; assay: Antibacterial activity against Staphylococcus aureus FDA209P JC-1 assessed as reduction in microbial growth after 20 hrs by liquid microculture method; type: functional, organism-based
[7] = system: Trichophyton rubrum; assay: Antifungal activity against Trichophyton rubrum NBRC5467 assessed as reduction in microbial growth after 20 hrs by liquid microculture method; type: functional, organism-based
[8] = system: HeLa; assay: Induction of autophagy in human HeLa cells expressing GFP-LC3 assessed as suppression of autolysosome formation at 10 nM measured after 24 hrs by fluorescence microscopic analysis; type: functional, cell-based
[9] = system: Candida albicans; assay: Antifungal activity against Candida albicans NBRC0197 assessed as reduction in microbial growth after 20 hrs by liquid microculture method; type: functional, organism-based

SMILES | Activity [1] | Activity [2] | Activity [3] | Activity [4] | Activity [5] | Activity [6] | Activity [7] | Activity [8] | Activity [9]
CC[C@H](C)[C@@H]1NC(=O)[C@H](CC(C)C)NC(=O)[C@H](Cc2ccccc2)NC(=O)[C@@H](Cc2ccccc2)NC(=O)[C@@H](Cc2ccccc2)NC1=O | inactive | inactive | inactive | inactive | inactive | inactive | inactive | inactive | inactive
CC[C@H](C)[C@@H]1NC(=O)[C@@H]2CCCN2C(=O)[C@H](CC(C)C)OC(=O)CCNC(=O)[C@H](Cc2ccccc2)N(C)C(=O)[C@H](Cc2ccccc2)N(C)C1=O (cyclo(I[NMeF][NMeF][βAla][Hica(2S)]P)) | inactive | Active | inactive | inactive | inactive | inactive | inactive | Active | inactive
CC(C)C[C@@H]1OC(=O)CCNC(=O)[C@H](Cc2ccccc2)N(C)C(=O)[C@H](Cc2ccccc2)N(C)C(=O)[C@H](C(C)C)NC(=O)[C@@H]2CCCN2C1=O (cyclo([Hica(2S)]PV[NMeF][NMeF][βAla])) | inactive | inactive | inactive | inactive | inactive | inactive | inactive | inactive | inactive
